# How the values were obtained:
# human HeLa cell extracts = test: O-acetyl-ADP ribose utilization by enzymes from human HeLa cell extracts; format: in vitro ADME; conditions: HeLa cell extract vs buffer control, time points up to 3 hrs, HPLC
# Description: P/CAF [^3H]-monoacetylation of H3 peptide. The histone acetyltransferase P/CAF was used to monoacetylate H3 peptide on Lysine 14 (12). P/CAF (0.175 μM) was mixed with [^3H]-acetyl CoA (33.3 μM, 1.88 Ci/mmol) and H3 peptide (175 μM) for 20 min at 25° C. prior to quenching with TFA to 1%. Mono [^3H]-acetylated H3 peptide was separated from unmodified H3 by HPLC analysis as described above. MALDI/ESI Mass Spectrometry Analyses. MALDI mass spectrometry was performed (Oregon State University, Environmental Health Sciences Center) on a custom-built reflector time-of-flight mass spectrometer equipped with a two-stage delayed extraction source. […] Every mass spectrum was recorded as the sum of 20 consecutive spectra, each produced by a single pulse of photons. […] The amount of [^3H]-AcLys14 H3 peptide and [^3H]-O-acetyl ADP ribose was determined by liquid scintillation counting of these species separated on reverse phase HPLC. […] Protein concentrations of supernatants were determined by the method of Bradford. […]
# To provide evidence for the existence of human cellular proteins/enzymes that are capable of binding and catalyzing the conversion or decomposition of O-acetyl-ADP ribose, human HeLa cell extracts were generated and the ability of proteins within the extract to catalyze the decomposition of O-acetyl-ADP ribose was assessed. […]
# [1] = tested on: Asterina miniata immature oocytes; test: Microinjection into immature starfish oocytes, oocyte maturation (GVBD, polar body extrusion); format: cell-based; conditions: for effect on oocyte maturation as assessed by GVBD and polar body extrusion: microinjected, compared to control injections, text summary
# Description: Asterina miniata gametes were collected and microinjections were performed as described previously (Carroll et al., 1999). Briefly, quantitative microinjection of Asterina miniata oocytes was performed at 16° C., using mercury-filled micropipets (Hiramoto, 1962; Kiehart, 1982; and see the information available at http://egg/uchc.edu/injection), allowing injection of precisely calibrated picoliter volumes into the oocytes and blastomeres. Injection volumes were 3% of the total cellular volume (for oocytes, 93 pL and for blastomeres, 47 pL). Buffer alone, purified O-acetylated ADP ribose or recombinant protein was injected into immature oocytes or one blastomere of a two cell stage embryo to a final concentration in the cytoplasm as indicated in the figure legends and Tables. 1-methyl adenine was from Sigma and was used at 10 μM.
# Micro-injection assays were performed in starfish and sea urchin ooctyes. Historically echinoderm development has been a biochemically tractable and well-defined system to assess biological function of pruteins, bio-active compounds and for detailed analyses of the cell cycle. This system is attractive for its amenability to quantitative microinjection assays, cell cycle analyses, biochemical fractionation and microscopic imaging of eggs and early embryos. Initially, we hypothesized that if O-acetyl-ADP ribose produced by SIR2 was involved in SIR2's gene silencing ability, then micro-injection of O-acetyl-ADP ribose into a maturing oocyte should give rise to a phenotypic effect on the developing animal, perhaps through perturbations in normal gene expression patterns. Immature oocytes were micro-injected with HPLC-purified O-acetyl-ADP ribose or with a buffer control. The oocytes were allowed to mature by the addition of 1-methyladenine and assessed for developmental alterations.
# Asterina miniata immature oocytes were microinjected with the amounts of O-acetyl ADP ribose in PBS. The maturation hormone 1-methyladenine was added (10 μM) 25-30 minutes post-injection. Oocytes were monitored for GVBD and polar body extrusion. […] The number of oocytes per treatment is given. Combined results of 3 separate experiments (3 batches of O-acetyl ADP ribose).
# Asterina miniata immature oocytes were microinjected with the given enzymes in PBS. The maturation hormone 1-methyladenine was added (10 μM) 25-30 minutes post-injection. Oocytes were monitored for GVBD and polar body extrusion. […] The number of oocytes per treatment (n) is given. Data are from four separate batches of oocytes. All oocytes for a given treatment responded in the same way unless indicated otherwise (e.g. see 200 nM HST2 injection).
# [2] = 0.2 mg/ml (0.32 mM) in cytoplasm
# [3] = 0.5 mg/ml (0.8 mM) in cytoplasm
# [4] = 1.0 mg/ml (1.6 mM) in cytoplasm
substance,measurement,setting,value
O-acetyl-ADP ribose,conversion/consumption of O-acetyl-ADP ribose by cell extract,human HeLa cell extracts,"convert O-acetyl-ADP ribose to a distinct, but as yet unidentified species"
same,conversion/consumption of O-acetyl-ADP ribose by cell extract,human HeLa cell extracts; listed as O-acetyl ADP ribose,capable of consuming O-acetyl ADP ribose
same,no effect (oocytes),[1]; 0.01 mg/ml (0.016 mM) in cytoplasm,8/8
same,no effect (oocytes),[1]; 0.1 mg/ml (0.16 mM) in cytoplasm,16/16
same,compete block (oocytes),[1]; [2],1/8
same,no effect (oocytes),[1]; [2],7/8
same,1-2 hr delay (oocytes),[1]; [3],10/16
same,compete block (oocytes),[1]; [3],6/16
same,1-2 hr delay (oocytes),[1]; [4],1/23
same,compete block (oocytes),[1]; [4],22/23
same,compete block (oocytes),[1]; 1.7 mg/ml (3 mM) in cytoplasm,6/6
same,immediate death (oocytes),[1]; 3.0 mg/ml (5 mM) in cytoplasm,1/3
same,no effect (oocytes),"[1]; 3.0 mg/ml (5 mM) in cytoplasm, 1-methyladenine 10 μM",2/3
same,immediate death (oocytes),[1]; 10 mg/ml (16 mM) in cytoplasm,2/2
same,effect on apoptosis of unfertilized oocyte,[1]; apoptosis normally occurs after ~24 hrs if not fertilized,delayed apoptosis
same,"GV breakdown, polar body extrusion and apoptosis of injected oocytes","[1]; final 1 mg/mL, images 3 and 24 hr post hormone treatment, FIG. 9","did not undergo GV breakdown or polar body extrusion, nor did they undergo apoptosis"
same,effect on oocyte maturation as assessed by GVBD and polar body extrusion,[1],"a delay in germinal vesicle breakdown (GVBD), or a complete block in oocyte maturation"
same,effect on oocyte maturation as assessed by GVBD and polar body extrusion,[1]; listed as O-acetyl ADP ribose,block oocyte maturation
same,concentration below which no effect was observed (dose-dependency),[1]; oocyte maturation,below 0.32 mM

# Source: US7521432B2, “Compositions and methods for identifying agents which regulate chromosomal stability, gene activation and aging” (priority 2000, dated 2009)
